Reference: ChEMBL document CHEMBL5042496, “An unanticipated discovery towards novel naphthalimide corbelled aminothiazoximes as potential anti-MRSA agents and allosteric modulators for PBP2a” (Eur J Med Chem, 2022)
Converted amounts (≈) assume the structure as drawn.

Tests used:
[1] = test system: Staphylococcus aureus; assay: Antibacterial activity against methicillin-resistant Staphylococcus aureus assessed as bacterial growth inhibition measured after 24 hrs by two fold serial dilution technique; assay type: functional
[2] = test system: Enterococcus faecium; assay: Antibacterial activity against Enterococcus faecium assessed as bacterial growth inhibition measured after 24 hrs by two fold serial dilution technique; assay type: functional
[3] = test system: Staphylococcus aureus; assay: Antibacterial activity against Staphylococcus aureus assessed as bacterial growth inhibition measured after 24 hrs by two fold serial dilution technique; assay type: functional
[4] = test system: Staphylococcus aureus; assay: Antibacterial activity against Staphylococcus aureus ATCC 25923 assessed as bacterial growth inhibition measured after 24 hrs by two fold serial dilution technique; assay type: functional
[5] = test system: Staphylococcus aureus; assay: Antibacterial activity against Staphylococcus aureus ATCC 29213 assessed as bacterial growth inhibition measured after 24 hrs by two fold serial dilution technique; assay type: functional
[6] = test system: Klebsiella pneumoniae; assay: Antibacterial activity against Klebsiella pneumoniae assessed as bacterial growth inhibition measured after 24 hrs by two fold serial dilution technique; assay type: functional
[7] = test system: Escherichia coli; assay: Antibacterial activity against Escherichia coli assessed as bacterial growth inhibition measured after 24 hrs by two fold serial dilution technique; assay type: functional
[8] = test system: Pseudomonas aeruginosa; assay: Antibacterial activity against Pseudomonas aeruginosa assessed as bacterial growth inhibition measured after 24 hrs by two fold serial dilution technique; assay type: functional
[9] = test system: Acinetobacter baumannii; assay: Antibacterial activity against Acinetobacter baumannii assessed as bacterial growth inhibition measured after 24 hrs by two fold serial dilution technique; assay type: functional
[10] = test system: Pseudomonas aeruginosa; assay: Antibacterial activity against Pseudomonas aeruginosa ATCC 27853 assessed as bacterial growth inhibition measured after 24 hrs by two fold serial dilution technique; assay type: functional
[11] = test system: Escherichia coli; assay: Antibacterial activity against Escherichia coli ATCC 25922 assessed as bacterial growth inhibition measured after 24 hrs by two fold serial dilution technique; assay type: functional
[12] = Hemolytic activity in human RBC assessed as hemolysis incubated for 1 hr; assay type: toxicity, cell-based, Erythrocyte; settings: red blood cells

Row | SMILES | MIC [1] [µg/mL] | MIC [2] [µg/mL] | MIC [3] [µg/mL] | MIC [4] [µg/mL] | MIC [5] [µg/mL] | MIC [6] [µg/mL] | MIC [7] [µg/mL] | MIC [8] [µg/mL] | MIC [9] [µg/mL] | MIC [10] [µg/mL] | MIC [11] [µg/mL] | HC50 at 1 h [12] [µg/mL]
1 | CO/N=C(\C(=O)N1CCN(c2ccc3c4c(cccc24)C(=O)N(C(CO)CO)C3=O)CC1)c1csc(N)n1 | 4 (≈ 7.43 µM) | 64 (≈ 119 µM) | 64 (≈ 119 µM) | 16 (≈ 29.7 µM) | 32 (≈ 59.4 µM) | 128 (≈ 238 µM) | 4 (≈ 7.43 µM) | 32 (≈ 59.4 µM) | 32 (≈ 59.4 µM) | 32 (≈ 59.4 µM) | 64 (≈ 119 µM) | 232
2 | CO/N=C(\C(=O)N1CCN(c2ccc3c4c(cccc24)C(=O)N(c2nnc(C)s2)C3=O)CC1)c1csc(N)n1 | 1 (≈ 1.78 µM) | 16 (≈ 28.4 µM) | 64 (≈ 114 µM) | 64 (≈ 114 µM) | 16 (≈ 28.4 µM) | 4 (≈ 7.11 µM) | 4 (≈ 7.11 µM) | 32 (≈ 56.9 µM) | 32 (≈ 56.9 µM) | 32 (≈ 56.9 µM) | 32 (≈ 56.9 µM) | 265
3 | CO/N=C(\C(=O)N1CCN(c2ccc3c4c(cccc24)C(=O)N(C2CC2)C3=O)CC1)c1csc(N)n1 | 32 (≈ 63.4 µM) | 32 (≈ 63.4 µM) | 32 (≈ 63.4 µM) | 16 (≈ 31.7 µM) | 64 (≈ 127 µM) | 32 (≈ 63.4 µM) | 32 (≈ 63.4 µM) | 64 (≈ 127 µM) | 16 (≈ 31.7 µM) | 128 (≈ 254 µM) | 64 (≈ 127 µM) | 266
4 | CCCCN1C(=O)c2cccc3c(N4CCN(C(=O)/C(=N\OC)c5csc(N)n5)CC4)ccc(c23)C1=O | 8 (≈ 15.4 µM) | 16 (≈ 30.7 µM) | 64 (≈ 123 µM) | 128 (≈ 246 µM) | 64 (≈ 123 µM) | 64 (≈ 123 µM) | 32 (≈ 61.5 µM) | 64 (≈ 123 µM) | 8 (≈ 15.4 µM) | 64 (≈ 123 µM) | 64 (≈ 123 µM) | 563
5 | CO/N=C(\C(=O)N1CCN(c2ccc3c4c(cccc24)C(=O)N(C2CCCCC2)C3=O)CC1)c1csc(N)n1 | 16 (≈ 29.3 µM) | 16 (≈ 29.3 µM) | 64 (≈ 117 µM) | 128 (≈ 234 µM) | 64 (≈ 117 µM) | 16 (≈ 29.3 µM) | 64 (≈ 117 µM) | 128 (≈ 234 µM) | 8 (≈ 14.6 µM) | 64 (≈ 117 µM) | 64 (≈ 117 µM) | 257
6 | CO/N=C(\C(=O)N1CCN(c2ccc3c4c(cccc24)C(=O)N(NC(C)=O)C3=O)CC1)c1csc(N)n1 | 4 (≈ 7.67 µM) | 32 (≈ 61.4 µM) | 64 (≈ 123 µM) | 64 (≈ 123 µM) | 32 (≈ 61.4 µM) | 32 (≈ 61.4 µM) | 4 (≈ 7.67 µM) | 32 (≈ 61.4 µM) | 16 (≈ 30.7 µM) | 32 (≈ 61.4 µM) | 64 (≈ 123 µM) | 180
7 | CO/N=C(\C(=O)N1CCN(c2ccc3c4c(cccc24)C(=O)N(CC(=O)O)C3=O)CC1)c1csc(N)n1 | 64 (≈ 122 µM) | 64 (≈ 122 µM) | 256 (≈ 490 µM) | 128 (≈ 245 µM) | 64 (≈ 122 µM) | 128 (≈ 245 µM) | 32 (≈ 61.2 µM) | 16 (≈ 30.6 µM) | 32 (≈ 61.2 µM) | 64 (≈ 122 µM) | 64 (≈ 122 µM) | 1000
8 | CO/N=C(\C(=O)N1CCN(c2ccc3c4c(cccc24)C(=O)N(O)C3=O)CC1)c1csc(N)n1 | 16 (≈ 33.3 µM) | 8 (≈ 16.6 µM) | 64 (≈ 133 µM) | 32 (≈ 66.6 µM) | 32 (≈ 66.6 µM) | 16 (≈ 33.3 µM) | 32 (≈ 66.6 µM) | 64 (≈ 133 µM) | 2 (≈ 4.16 µM) | 64 (≈ 133 µM) | 64 (≈ 133 µM) | 277
9 | CO/N=C(\C(=O)N1CCN(c2ccc3c4c(cccc24)C(=O)N(N)C3=O)CC1)c1csc(N)n1 | 4 (≈ 8.34 µM) | 32 (≈ 66.7 µM) | 64 (≈ 133 µM) | 32 (≈ 66.7 µM) | 64 (≈ 133 µM) | 32 (≈ 66.7 µM) | 2 (≈ 4.17 µM) | 16 (≈ 33.4 µM) | 32 (≈ 66.7 µM) | 32 (≈ 66.7 µM) | 64 (≈ 133 µM) | 250
10 | CO/N=C(\C(=O)N1CCN(c2ccc3c4c(cccc24)C(=O)N(CC#N)C3=O)CC1)c1csc(N)n1 | 16 (≈ 31.8 µM) | 8 (≈ 15.9 µM) | 64 (≈ 127 µM) | 128 (≈ 254 µM) | 32 (≈ 63.5 µM) | 16 (≈ 31.8 µM) | 128 (≈ 254 µM) | 256 (≈ 508 µM) | 8 (≈ 15.9 µM) | 64 (≈ 127 µM) | 64 (≈ 127 µM) | 299
11 | CCCCCCN1C(=O)c2cccc3c(N4CCN(C(=O)/C(=N\OC)c5csc(N)n5)CC4)ccc(c23)C1=O | 32 (≈ 58.3 µM) | 64 (≈ 117 µM) | 16 (≈ 29.2 µM) | 128 (≈ 233 µM) | 64 (≈ 117 µM) | 64 (≈ 117 µM) | 32 (≈ 58.3 µM) | 64 (≈ 117 µM) | 8 (≈ 14.6 µM) | 64 (≈ 117 µM) | 64 (≈ 117 µM) | 306
12 | CO/N=C(\C(=O)N1CCN(c2ccc3c4c(cccc24)C(=O)N(c2nc4ccccc4s2)C3=O)CC1)c1csc(N)n1 | 16 (≈ 26.8 µM) | 64 (≈ 107 µM) | 128 (≈ 214 µM) | 128 (≈ 214 µM) | 128 (≈ 214 µM) | 16 (≈ 26.8 µM) | 64 (≈ 107 µM) | 64 (≈ 107 µM) | 128 (≈ 214 µM) | 32 (≈ 53.5 µM) | 16 (≈ 26.8 µM) | 334
13 | CCON1C(=O)c2cccc3c(N4CCN(C(=O)/C(=N\OC)c5csc(N)n5)CC4)ccc(c23)C1=O | 8 (≈ 15.7 µM) | 8 (≈ 15.7 µM) | 128 (≈ 252 µM) | 64 (≈ 126 µM) | 32 (≈ 62.9 µM) | 16 (≈ 31.5 µM) | 64 (≈ 126 µM) | 64 (≈ 126 µM) | 2 (≈ 3.93 µM) | 32 (≈ 62.9 µM) | 64 (≈ 126 µM) | 509
14 | CO/N=C(\C(=O)N1CCN(c2ccc3c4c(cccc24)C(=O)N(CCO)C3=O)CC1)c1csc(N)n1 | 2 (≈ 3.93 µM) | 16 (≈ 31.5 µM) | 64 (≈ 126 µM) | 16 (≈ 31.5 µM) | 32 (≈ 62.9 µM) | 64 (≈ 126 µM) | 16 (≈ 31.5 µM) | 16 (≈ 31.5 µM) | 16 (≈ 31.5 µM) | 64 (≈ 126 µM) | 64 (≈ 126 µM) | 214
15 | CO/N=C(\C(=O)N1CCN(c2ccc3c4c(cccc24)C(=O)N(C2CCCC2)C3=O)CC1)c1csc(N)n1 | 8 (≈ 15 µM) | 16 (≈ 30 µM) | 64 (≈ 120 µM) | 64 (≈ 120 µM) | 32 (≈ 60.1 µM) | 32 (≈ 60.1 µM) | 64 (≈ 120 µM) | 64 (≈ 120 µM) | 8 (≈ 15 µM) | 32 (≈ 60.1 µM) | 64 (≈ 120 µM) | 278
16 | CO/N=C(\C(=O)N1CCN(c2ccc3c4c(cccc24)C(=O)N(c2nc4ccccc4[nH]2)C3=O)CC1)c1csc(N)n1 | 4 (≈ 6.89 µM) | 128 (≈ 220 µM) | 128 (≈ 220 µM) | 128 (≈ 220 µM) | 128 (≈ 220 µM) | 8 (≈ 13.8 µM) | 256 (≈ 441 µM) | 16 (≈ 27.6 µM) | 128 (≈ 220 µM) | 32 (≈ 55.1 µM) | 16 (≈ 27.6 µM) | 367
17 | O=C(O)c1cn(C2CC2)c2cc(N3CCNCC3)c(F)cc2c1=O [CIPROFLOXACIN] | 4 (≈ 12.1 µM) | 2 (≈ 6.04 µM) | 2 (≈ 6.04 µM) | 0.5 (≈ 1.51 µM) | 8 (≈ 24.1 µM) | 2 (≈ 6.04 µM) | – | – | 2 (≈ 6.04 µM) | – | – | –
18 | CN(C)[C@@H]1C(O)=C(C(N)=O)C(=O)[C@@]2(O)C(O)=C3C(=O)c4c(O)cccc4[C@@](C)(O)[C@H]3C[C@@H]12 [TETRACYCLINE] | 1 (≈ 2.25 µM) | 2 (≈ 4.5 µM) | 1 (≈ 2.25 µM) | 4 (≈ 9 µM) | 4 (≈ 9 µM) | 16 (≈ 36 µM) | 0.25 (≈ 0.563 µM) | 0.25 (≈ 0.563 µM) | 0.25 (≈ 0.563 µM) | 64 (≈ 144 µM) | 1 (≈ 2.25 µM) | –
